Source: patent US5258492A, “LHRH analogues with cytotoxic moieties at the sixth position” (The Administrators of the Tulane Educational Fund, priority 1991, dated 1993)
Each block holds one substance with its values, some of them ahead of it.

Columns and labels:
[1] = target: T1, membrane receptors of human breast cancer cells (Homo sapiens, UniProt P30968); experiment: Binding affinity for membrane receptors of human breast cancer cells using 125I-labeled [D-Trp6]LHRH
T1 construct: endogenous in cells; host or cells: human breast cancer cells (membranes)
T1 sequence (P30968 1-328): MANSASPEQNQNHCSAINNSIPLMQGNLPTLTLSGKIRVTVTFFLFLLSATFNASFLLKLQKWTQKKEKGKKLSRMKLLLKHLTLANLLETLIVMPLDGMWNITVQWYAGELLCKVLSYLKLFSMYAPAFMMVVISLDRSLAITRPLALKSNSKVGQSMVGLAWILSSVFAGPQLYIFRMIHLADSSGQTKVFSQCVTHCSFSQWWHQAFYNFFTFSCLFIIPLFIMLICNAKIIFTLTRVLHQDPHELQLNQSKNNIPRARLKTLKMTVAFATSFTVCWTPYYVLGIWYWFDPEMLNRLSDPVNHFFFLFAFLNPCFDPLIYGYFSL
Protocol: (§1) This is determined by using labelled LHRH and [D-Trp^6 ]LHRH. The assay is carried out similarly to that described by T. Kadar et al., Proc. Natl. Acad. Sci. USA, 85, 890-894 (1988).
(§2) Table 2 presents the antiovulatory activity of the claimed compounds having LHRH-inhibiting properties. The inhibitory action was determined in vivo, in 4-day cycling rats as described [A. Corbin and C. W. Beattie, Endocr. Res. Commun., 2, 1-23 (1975)]. Affinities of the claimed compounds to membrane receptors of rat pituitary and human breast cancer cells are also given in Tables 1 and 2 as determined by using [^125 I,D-Trp^6 ]LHRH.
(§3) **Affinity constants of the peptides for the first receptor class (i.e.
(§4) for high affinity binding sites) of pituitary of male rats and human
(§5) breast cancer cells, respectively, as determined by using ^125
(§6) Ilabeled [DTrp^6 ]LHRH.
(§7) breast cancer cells, respectively, were determined by using ^125

[2] = target: T2, membrane receptors of pituitary of male rats (Rattus norvegicus, UniProt P30969); experiment: Binding affinity for membrane receptors of rat pituitary using 125I-labeled [D-Trp6]LHRH
T2 construct: from tissue; host or cells: pituitary of male rats (membranes)
T2 sequence (P30969 1-327): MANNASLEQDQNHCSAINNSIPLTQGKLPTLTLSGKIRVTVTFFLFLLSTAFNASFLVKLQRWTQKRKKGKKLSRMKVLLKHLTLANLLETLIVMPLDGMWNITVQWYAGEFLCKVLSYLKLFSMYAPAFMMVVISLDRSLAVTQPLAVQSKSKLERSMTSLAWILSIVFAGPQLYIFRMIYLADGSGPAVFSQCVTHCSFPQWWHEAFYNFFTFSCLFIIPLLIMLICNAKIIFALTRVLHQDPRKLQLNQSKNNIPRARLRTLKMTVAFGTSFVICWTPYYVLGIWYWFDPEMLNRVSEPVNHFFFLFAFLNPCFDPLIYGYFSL
Protocol: as §1, §2, §3, §4, §5, §6, §7

4-day cycling rats = experiment: In vivo antiovulatory activity in 4-day cycling rats; design: species or system rat
Protocol: This activity of the peptides is determined in 4-day-cycling rats as described [A. Corbin and C. W. Beattie, Endocr. Res. Commun., 2, 1-23 (1975)].
as §2
*LHRH-inhibiting potencies were assayed in 4day cyclic rats.

[3] = system: dispersed rat pituitary cell superfusion system; experiment: LH release in dispersed rat pituitary cell superfusion system (agonistic activity); type: cell-based; conditions: Table 1; peptide infused 3 min, LH released compared to 3 nM LHRH
Protocol: *LH responses to the analogues were determined in dispersed rat pituitary
cell superfusion system.

[4] = system: rat mammary tumor cell line MT-4; experiment: Inhibition of 3H-thymidine incorporation into DNA of MT-4 monolayer cultures; type: cell-based; conditions: for DPM/Well × 1000: mean +/- standard error
Protocol: (d) Ability of peptides of Formula I to inhibit incorporation of [^3 H]thymidine into DNA of monolayer cultures the rat mammary tumor cell line MT-4
This is assayed as described [V. K. Sondak et al., Cancer Research, 44, 1725-1728 (1984); F. Holzel et al., J. Cancer Res. Clin. Oncol. 109, 217-226 (1985); M. Albert et al., J. Cancer Res. Clin. Oncol. 109, 210-216 (1985)].
To obtain information about the cytotoxic properties of the compounds, the inhibition of ^3 H-thymidine incorporation into DNA of monolayer cultures of the rat mammary tumor cell line MT-4 was studied. Experiments started with 100K MT-4 cells/plate on day 0. Dose was changed 3 times, total incubation time with the sample was 5 days. 1 μCu ^3 H-thymidine/ml was added on day 4.

[5] = Table 2, high affinity binding sites
[6] = Table 1, high affinity binding sites
[7] = DME Medium + 0% Serum, 1 ng/ml (6 × 10^-10 M)
[8] = DME Medium + 0% Serum, 10 ng/ml
[9] = DME Medium + 0% Serum, 100 ng/ml
[10] = DME Medium + 0% Serum, 1000 ng/ml
[11] = DME Medium + 0% Serum, 2000 ng/ml
[12] = DME Medium + 10% Serum, 1 ng/ml (6 × 10^-10 M)
[13] = DME Medium + 10% Serum, 10 ng/ml
[14] = DME Medium + 10% Serum, 100 ng/ml
[15] = DME Medium + 10% Serum, 1000 ng/ml
[16] = DME Medium + 10% Serum, 2000 ng/ml

Substance: Ac-D-Nal(2)-D-Phe(4 Cl)-D-Trp-Ser-Arg-D-Lys[(Cu^++)(POL)2 (DL-A2 pr)]-Leu-Arg-Pro-D-Ala-NH2 [Example XXIII]
Binding affinity, Ka1, for membrane receptors of cancer cells [1, 5]: 3.408 nM⁻¹
Binding affinity, Ka1, for membrane receptors of pituitary [2, 5]: 7.622 nM⁻¹
% Blockade of ovulation (4-day cycling rats; Dose 10 μg/rat): 40%

Substance: Ac-D-Nal(2)-D-Phe(4Cl)-D-Pal(3)-Ser-Arg-D-Lys[(Cu^++)(POL)2 (DL-A2 pr)]-Leu-Arg-Pro-D-Ala-NH2 [XXIV]
Binding affinity, Ka1, for membrane receptors of cancer cells [1, 5]: 2.628 nM⁻¹
Binding affinity, Ka1, for membrane receptors of pituitary [2, 5]: 5.483 nM⁻¹
% Blockade of ovulation (4-day cycling rats; Dose 3 μg/rat): 50%

Substance: Ac-D-Nal(2)-D-Phe(4Cl)-D-Pal(3)-Ser-Arg-D-Lys[(Cu^++)(POLP)2 (DL-A2 pr)]-Leu-Arg-Pro-D-Ala-NH2 [Example XX]
Binding affinity, Ka1, for membrane receptors of cancer cells [1, 5]: 2.436 nM⁻¹
Binding affinity, Ka1, for membrane receptors of pituitary [2, 5]: 5.250 nM⁻¹
% Blockade of ovulation (4-day cycling rats; Dose 3 μg/rat): 80%

Substance: Ac-D-Nal(2)-D-Phe(4Cl)-D-Pal(3)-Ser-Arg-D-Lys[(Cu^++)(SAL)2 (A2 bu-Eac)]-Leu-Arg-Pro-D-Ala-NH2 [XXVIII]
Binding affinity, Ka1, for membrane receptors of cancer cells [1, 5]: 0.192 nM⁻¹

Substance: Ac-D-Nal(2)-D-Phe(4Cl)-D-Pal(3)-Ser-Arg-D-Lys[(Ni^++)(SAL)2 (DL-A2 pr)]-Leu-Arg-Pro-D-Ala-NH2 [XIII]
Binding affinity, Ka1, for membrane receptors of cancer cells [1, 5]: 0.878 nM⁻¹
Binding affinity, Ka1, for membrane receptors of pituitary [2, 5]: 1.821 nM⁻¹
% Blockade of ovulation (4-day cycling rats; rat, in vivo): 100

Substance: pGlu-His-Trp-Ser-Tyr-D-Lys[(Cu^++)(CISAL)2 (DL-A2 pr)]-Leu-Arg-Pro-Gly-NH2 [Example IX]
Binding affinity, Ka1, for membrane receptors of cancer cells [1, 6]: 3.995 nM⁻¹
Hormonal activity, LH responses rel. to LHRH (= 1) [3]: 10
Binding affinity, Ka1, for membrane receptors of pituitary [2, 6]: 8.625 nM⁻¹

Substance: pGlu-His-Trp-Ser-Tyr-D-Lys[(Cu^++)(FUR)2 (DL-A2 pr)]-Leu-Arg-Pro-Gly-NH2 [XVII]
Binding affinity, Ka1, for membrane receptors of cancer cells [1, 6]: 0.536 nM⁻¹
Hormonal activity, LH responses rel. to LHRH (= 1) [3]: 10
Binding affinity, Ka1, for membrane receptors of pituitary [2, 6]: 1.770 nM⁻¹

Substance: pGlu-His-Trp-Ser-Tyr-D-Lys[(Cu^++)(PEN)2 (A2 pr)]-Leu-Arg-Pro-Gly-NH2 [Example XXI]
Binding affinity, Ka1, for membrane receptors of cancer cells [1, 6]: 5.096 nM⁻¹
Hormonal activity, LH responses rel. to LHRH (= 1) [3]: 10.6
Binding affinity, Ka1, for membrane receptors of pituitary [2, 6]: 10.989 nM⁻¹

Substance: pGlu-His-Trp-Ser-Tyr-D-Lys[(Cu^++)(POL)2 (DL-A2 bu)]-Leu-Arg-Pro-Gly-NH2 [XXV]
Binding affinity, Ka1, for membrane receptors of cancer cells [1, 6]: 3.141 nM⁻¹
Hormonal activity, LH responses rel. to LHRH (= 1) [3]: 5.5
Binding affinity, Ka1, for membrane receptors of pituitary [2, 6]: 6.405 nM⁻¹

Substance: pGlu-His-Trp-Ser-Tyr-D-Lys[(Cu^++)(POLP)2 (DL-A2 bu)]-Leu-Arg-Pro-Gly-NH2 [Example XVI]
Binding affinity, Ka1, for membrane receptors of cancer cells [1, 6]: 5.038 nM⁻¹
Hormonal activity, LH responses rel. to LHRH (= 1) [3]: 1.5
Binding affinity, Ka1, for membrane receptors of pituitary [2, 6]: 9.751 nM⁻¹

Substance: pGlu-His-Trp-Ser-Tyr-D-Lys[(Cu^++)(SAL)2 (A2 pr)]-Leu-Arg-Pro-Gly-NH2 [Example VII]
Binding affinity, Ka1, for membrane receptors of cancer cells [1, 6]: 3.589 nM⁻¹
Hormonal activity, LH responses rel. to LHRH (= 1) [3]: 10
Binding affinity, Ka1, for membrane receptors of pituitary [2, 6]: 7.968 nM⁻¹
% Inhibition [4, 7]: 41%
DPM/Well × 1000 [4, 7]: 249 +/- 30.5 DPM/Well × 1000
% Inhibition [4, 8]: 42%
DPM/Well × 1000 [4, 8]: 242 +/- 32.1 DPM/Well × 1000
% Inhibition [4, 9]: 56%
DPM/Well × 1000 [4, 9]: 186 +/- 13.2 DPM/Well × 1000
% Inhibition [4, 10]: 52%
DPM/Well × 1000 [4, 10]: 204 +/- 40.9 DPM/Well × 1000
% Inhibition [4, 11]: 41%
DPM/Well × 1000 [4, 11]: 249 +/- 45.1 DPM/Well × 1000
% Inhibition [4, 12]: 53%
DPM/Well × 1000 [4, 12]: 48 +/- 8.6 DPM/Well × 1000
% Inhibition [4, 13]: 61%
DPM/Well × 1000 [4, 13]: 40 +/- 6.7 DPM/Well × 1000
% Inhibition [4, 14]: 59%
DPM/Well × 1000 [4, 14]: 42 +/- 10.4 DPM/Well × 1000
% Inhibition [4, 15]: 65%
DPM/Well × 1000 [4, 15]: 36 +/- 5.1 DPM/Well × 1000
% Inhibition [4, 16]: 62%
DPM/Well × 1000 [4, 16]: 39 +/- 4.6 DPM/Well × 1000
inhibition of 3H-thymidine incorporation into DNA (in words) ([4]; concentration of 6×10^-10 M): strong inhibitory effect

Substance: pGlu-His-Trp-Ser-Tyr-D-Lys[(Cu^++)(SAL)2 (DL-A2 bu)]-Leu-Arg-Pro-Gly-NH2 [XIV]
Binding affinity, Ka1, for membrane receptors of cancer cells [1, 6]: 1.628 nM⁻¹
Hormonal activity, LH responses rel. to LHRH (= 1) [3]: 25
Binding affinity, Ka1, for membrane receptors of pituitary [2, 6]: 5.589 nM⁻¹

Second part, led by results:

Binding affinity, Ka1, for membrane receptors of cancer cells [1, 5]: 2.152 nM⁻¹
Substance: Ac-D-Nal(2)-D-Phe(4Cl)-D-Pal(3)-Ser-Arg-D-Lys[(PtCl2)-A2 bu-Eac)]-Leu-Arg-Pro-D-Ala-NH2 [XXVII]

Binding affinity, Ka1, for membrane receptors of cancer cells [1, 6]: 1.348 nM⁻¹
Binding affinity, Ka1, for membrane receptors of pituitary [2, 6]: 3.051 nM⁻¹
Substance: [D-Lys[(Cu^++)(SAL)2 (L-A2 pr)]^6 ]LHRH [VIA]
Hormonal activity, LH responses rel. to LHRH (= 1) [3]: 12

Binding affinity, Ka1, for membrane receptors of cancer cells [1, 6]: 3.334 nM⁻¹
Binding affinity, Ka1, for membrane receptors of pituitary [2, 6]: 6.457 nM⁻¹
Substance: [D-Lys[(Ni^++)(SAL)2(D-A2 pr)]^6 ]LHRH [VIIIB]
Hormonal activity, LH responses rel. to LHRH (= 1) [3]: 10

Binding affinity, Ka1, for membrane receptors of cancer cells [1, 6]: 5.234 nM⁻¹
Binding affinity, Ka1, for membrane receptors of pituitary [2, 6]: 9.710 nM⁻¹
Substance: [D-Lys[(Ni^++)(SAL)2(L-A2 pr)]^6 ]LHRH [VIIIA]
Hormonal activity, LH responses rel. to LHRH (= 1) [3]: 12

Binding affinity, Ka1, for membrane receptors of cancer cells [1, 6]: 2.236 nM⁻¹
Binding affinity, Ka1, for membrane receptors of pituitary [2, 6]: 4.513 nM⁻¹
Substance: pGlu-His-Trp-Ser-Tyr-D-Lys[(Ni^++)(CISAL)2 (DL-A2 pr)]-Leu-Arg-Pro-Gly-NH2 [Example X]
Hormonal activity, LH responses rel. to LHRH (= 1) [3]: 4

Binding affinity, Ka1, for membrane receptors of cancer cells [1, 6]: 1.743 nM⁻¹
Binding affinity, Ka1, for membrane receptors of pituitary [2, 6]: 3.285 nM⁻¹
Substance: pGlu-His-Trp-Ser-Tyr-D-Lys[(PtCl2)(DL-A2 pr)]-Leu-Arg-Pro-Gly-NH2 [Example III]
Hormonal activity, LH responses rel. to LHRH (= 1) [3]: 55

Binding affinity, Ka1, for membrane receptors of cancer cells [1, 6]: 3.005 nM⁻¹
Binding affinity, Ka1, for membrane receptors of pituitary [2, 6]: 5.817 nM⁻¹
Substance: pGlu-His-Trp-Ser-Tyr-D-Lys[Cu^++)(POL)2 (DL-A2 pr)]-Leu-Arg-Pro-Gly-NH2 [XVIII]
Hormonal activity, LH responses rel. to LHRH (= 1) [3]: 9

Binding affinity, Ka1, for membrane receptors of cancer cells [1, 6]: 4.528 nM⁻¹
Binding affinity, Ka1, for membrane receptors of pituitary [2, 6]: 8.676 nM⁻¹
Substance: pGlu-His-Trp-Ser-Tyr-D-Lys[Cu^++)(POLP)2 (A2 pr)]-Leu-Arg-Pro-Gly-NH2 [XIX]
Hormonal activity, LH responses rel. to LHRH (= 1) [3]: 0.3
